Measurements as given in PMC8151848, “Tambjamines and Prodiginines: Biocidal Activity against Trypanosoma cruzi” (Pharmaceutics, 2021).
Converted amounts (≈) assume the structure as drawn. Read-outs that look alike come from different tables or passages of the source.

How the values were obtained:
different parasites = system: different parasites; parameters: method as in PMID 32196500; conditions: cited from earlier work
[1] = Transmembrane anion transport (chloride efflux) in POPC vesicles; conditions: for anionophore activity (in words): chloride efflux
Protocol: The transmembrane anion transport activity of the compounds was explored in phospholipid (1-palmitoyl-2-oleoyl-sn-glycero-3-phosphocholine (POPC)) vesicles. Chloride efflux from chloride loaded vesicles was monitored using a chloride selective electrode. A solution of the studied compound in DMSO, usually 5 µL to avoid the influence of the organic solvent during the experiments, was added, and once the experiment was finished, a surfactant (Triton-X, 10% dispersion in water, 20 µL) was used to lyse the vesicles and release all the encapsulated chloride. This value was taken as 100% release and used as such. The experiments were repeated using different concentrations of the studied compounds and normalized chloride efflux at […] against the concentration of compound plotted. The data were then fitted with the Hill equation and an EC50 parameter, representing the concentration of compound eliciting 50% of chloride release was calculated. Assays in which the external medium was nitrate or bicarbonate were performed.

Pseudomonas aeruginosa = conditions: cited from earlier work
[2] = system: epimastigotes of T. cruzi (CL strain, clone B5); parameters: method as in PMID 31210760; conditions: read-out: IC50 against epimastigotes of T. cruzi (earlier study); cited from earlier work
Enterococcus faecalis = conditions: cited from earlier work
Escherichia coli = conditions: cited from earlier work
[3] = system: epimastigotes of T. cruzi (CL strain, clone B5); assay: Epimastigote susceptibility assay (monotherapy); type: cell-based, Trypanosoma cruzi; conditions: for IC50: Trypanosoma cruzi, CLB strain, 72 h at 28 °C, mean ± SD, read-out: IC50 (µM) in epimastigotes of T. cruzi; for activity against the extracellular and replicative forms of T. cruzi (in words): epimastigotes
Protocol: The CL-B5 strain was stably transfected with the Escherichia coli β-galactosidase gene (lacZ) and routinely maintained in exponential growth by weekly passages. Trypomastigotes of the CL-B5 strain were obtained as previously reported.
The screening assays were performed in 96-well microplates (WWR Int LLC) containing serially diluted concentrations of each compound and seeded with 2.5 × 10^5 epimastigotes/mL harvested during the exponential growth phase. Growth, medium, and drug blanks were used in each assay as controls. An internal control of the reference drug, benznidazole, was also included. After 72 h at 28 °C, 50 µL of the substrate chlorophenol red-β-D-galactopyranoside (CPRG; Roche) diluted in 0.9% Triton X-100 solution (EMD, Darmstadt, Germany) were added at a final concentration of 200 µM. Then, after 3 h at 37 °C, measurements were performed in a scanning multiwell spectrophotometer (ELISA Multiskan Reader, BioTek Instruments, Inc., Winooski, VT, USA) at 595 nm. Each concentration was tested in triplicate and the experiments were performed three times independently. The efficacy of the compounds was calculated by determining the percentage of epimastigote growth (% EG value) as follows:(1) % Epimastigote growth=(AE−AEB)/(AC−ACB)×100 where AE is the absorbance of the experimental group, AEB the absorbance of the drug blank, AC the absorbance of the control group, and ACB the absorbance of the culture medium blank. The IC50 values (the drug concentration that eliminates 50% of the parasites) were determined for each compound using the GraphPad Prism software (Version 5.0.0 for Windows, GraphPad Software, San Diego, CA, USA).

Plasmodium yoelii = system: Plasmodium yoelii; parameters: method as in PMID 26305125; conditions: murine model; cited from earlier work
[4] = Cytotoxicity assay (resazurin) in L-929 fibroblasts; type: cell-based, mouse; conditions: mouse, L-929 fibroblasts (NCTC clone 929); L-929, 16 µM, n = 9; read-out: % Cytotoxicity ± SD
From the text: (§1) Mouse L-929 fibroblasts (NCTC clone 929, ECACC 88102702) were used for both drug toxicity and infection assays. Cell line was obtained from Dr. Concepció Soler, Dept. Pathology & Experimental therapeutics, Faculty of Medicine and Health Sciences, University of Barcelona, Spain. Human hepatocarcinoma Hep G2 cells (American Type Culture Collection (ATCC HB-8065)) were employed only in the drug toxicity assays and were obtained from Dr. Neus Agell, Cell Biology Research Group, Faculty of Medicine and Health Sciences, University of Barcelona, Spain.
(§2) Cells were seeded by trypsinization in 96-well microplates (L-929: 4 × 10^3 cells/well; Hep G2: 1.5 × 10^4 cells/well) and incubated for 24 h at 37 °C to allow cell attachment. On the following day, the medium was discarded and replaced with a fresh medium containing the different concentrations of the drugs. Hep G2 cells were treated with concentrations of 100, 10, and 1 µM of the different drugs, while L-929 cells were treated with a wider range of concentrations in order to calculate the IC50 value (the drug concentration that inhibits 50% of cell growth). Medium, growth, and drug blanks were used in each test as controls. Plates were incubated again for another 24 h. After treatment, 20 µL of resazurin diluted in 1X phosphate-buffered saline (PBS; Sigma Aldrich) was added at a final concentration of 70 µM. The plates were incubated for another 24 h, after which fluorescence was measured in a microplate reader (FLUOstar OPTIMA, BMG LABTECH GmbH, Ortenberg, Germany) at an excitation wavelength of 530 nm and an emission wavelength of 590 nm. Each concentration was tested in triplicate and the experiments were repeated three times independently. Results indicated the percentage of toxicity (% T value). (3) % Toxicity=100−(AE−AEB)/(AC−ACB)×100 where AE is the absorbance of the experimental group, AEB the absorbance of the drug blank, AC the absorbance of the untreated cells, and ACB the absorbance of the culture medium blank. For the L-929 fibroblasts, the IC50 values (the drug concentration that inhibits 50% of cell growth) were calculated for each compound using the GraphPad Prism software.

[5] = system: murine L-929 fibroblasts (NCTC clone 929); assay: as above; type: cell-based, mouse; conditions: Mus musculus, L929; read-out: IC50 (µM) L-929 cell growth inhibition
From the text: as §1, §2

[6] = POPC vesicles, ref 2 (Gianotti et al., Int. J. Mol. Sci., 2020), cited from earlier work
[7] = external bicarbonate, read-out: EC50 (µM) HCO3–/Cl–
[8] = external nitrate, read-out: EC50 (µM) NO3–/Cl–

Compound: Cc1c(-c2c(-c3ccc(F)o3)sc3ncnc(O[C@H](Cc4ccccc4OCc4ccnn4CC(F)(F)F)C(=O)O)c23)ccc(OCCN2CCN(C)CC2)c1Cl [Compound S63845]
- effect on the viability of different parasites (in words) (different parasites): do not have an effect

Compound: CCCCCC1=C/C(=C/c2[nH]c(-c3ccc[nH]3)cc2OC)N=C1C [Prodigiosin, prodigiosin]
- anionophore activity (in words) [1]: most active anionophore
- EC50 [1, 7]: 0.06 µM
- EC50 [1, 8]: 0.002 µM
- minimal inhibitory concentration (MIC) (Pseudomonas aeruginosa): 8 µM (≈ 2.59 µg/mL)
- IC50 [2]: ≤ 0.8 µM
- minimal inhibitory concentration (MIC) (Enterococcus faecalis): 2 µM (≈ 0.647 µg/mL)
- minimal inhibitory concentration (MIC) (Escherichia coli): 2 µM (≈ 0.647 µg/mL)

Compound: CC/N=C/c1[nH]c(-c2ccc[nH]2)c(CC)c1C [MM5]
- IC50 [3]: 130 ± 34.7 µM
- activity against the extracellular and replicative forms of T. cruzi (in words) [3]: did not show detectable levels of trypanocidal activity
- anionophore activity (in words) [1]: very limited activity
- EC50 (µM) HCO3–/Cl– ([1]; external bicarbonate): not active enough to calculate EC50 value
- EC50 (µM) NO3–/Cl– ([1]; external nitrate): not active enough to calculate EC50 value

Compound: CC1(C)CCC(CN2CCN(c3ccc(C(=O)NS(=O)(=O)c4ccc(NCC5CCOCC5)c([N+](=O)[O-])c4)c(Oc4cnc5[nH]ccc5c4)c3)CC2)=C(c2ccc(Cl)cc2)C1 [venetoclax]
- effect on the viability of different parasites (in words) (different parasites): do not have an effect

Compound: CCc1c(-c2ccc[nH]2)[nH]c(C=NC2CCCCCC2)c1C [KAR425]
- in vivo activity against P. yoelii infection (in words) (Plasmodium yoelii): potent in vivo activity

Compound: CC1(C)CCC(c2ccc(Cl)cc2)=C(CN2CCN(c3ccc(C(=O)NS(=O)(=O)c4ccc(N[C@H](CCN5CCOCC5)CSc5ccccc5)c(S(=O)(=O)C(F)(F)F)c4)cc3)CC2)C1 [navitoclax]
- effect on the viability of different parasites (in words) (different parasites): do not have an effect

Compound: Cc1c(-c2ccc(N3CCc4cccc(C(=O)Nc5nc6ccccc6s5)c4C3)nc2C(=O)O)cnn1CC12CC3CC(CC(C3)C1)C2 [Compound A-1331852]
- effect on the viability of different parasites (in words) (different parasites): do not have an effect

Compound: CCCCn1cc(-c2cc(OC)c(/C=C3\N=C(C)C=C3C)[nH]2)nn1 [EH123]
- Selectivity index (SI), Epimastigotes ([3]; IC50 for L-929 fibroblasts / IC50 for T. cruzi epimastigotes): 0.86
- IC50 [3]: 199 ± 49.9 µM
- activity against the extracellular and replicative forms of T. cruzi (in words) [3]: did not show detectable levels of trypanocidal activity
- cytotoxicity at 24 h, 16 µM [4]: 3.72 ± 1.14%
- IC50 [5]: 171.7 ± 0.5 µM
- EC50 [6, 7]: 1.91 µM
- EC50 [6, 8]: 0.024 µM

Compound: Cc1nn(C)c(COc2ccc(N3CCN(S(=O)(=O)N(C)C)CC3)cc2)c1-c1cccc2c(CCCOc3cccc4ccccc34)c(C(=O)O)n(CCN3CCOCC3)c12 [Compound A-1210477]
- effect on the viability of different parasites (in words) (different parasites): do not have an effect
